# Experiments:
# [1] = competition ELISA for LPS-binding capacity; set-up: species or system E. coli; settings: competition with biotinylated LALF32-51 at 0.2 μM; analogous peptides 10 μM to 0.01 μM; FIG. 1A
# Method: This assay consists on a competition ELISA system (Hardy E., et al (1994) Enhanced ELISA sensitivity using TCA for efficient coating of biologically active LPS or Lipid A to the solid phase. J. Immunol. Meth. Vol. 176:111-116). Polystyrene plates (Costar, USA) were coated with LPS from E. coli 0111:B4 (1 μg/ml) with 0.2% trichloroacetic acid (TCA). Plates were incubated overnight at 37° C. and further washed ten times with 1× phosphate-buffered saline (1×PBS) plus 0.1% tween-20 (washing solution). The binding of analogous peptides to the LPS fixed to the solid surface was evaluated by a competition ELISA with the biotinylated LALF32-51 peptide at 0.2 μM, obtaining a 90% of maximum LPS binding. To estimate the inhibition curves, different concentrations of the analogous peptides were used, from 10 μM to 0.01 μM and the curve of the LALF32-51 peptide as experimental control. The biotinylated LALF32-51 was incubated in the presence of the analogous peptides for 2 h at 37° C. and plates were washed 5 times after that time with washing solution. The biotinylated LALF32-51 bound to LPS was detected by incubating for 45 min at 37° C. with a streptavidin-peroxidase conjugate at a 1:2,000 dilution. Plates were washed 5 times with washing solution and the substrate solution was added (0.05 M citrate-phosphate buffer, pH 5.5, 1 tablet of 3,3′,5,5′-tetramethylbenzidine and 0.025% hydrogen peroxide). After 15 min incubation, the reaction was stopped by adding 2 M sulphuric acid. The absorbance was quantified at 450 nm in a plate reader (Sensident Scan). There is a correlation between optical density values and the LPS-binding capacity of analogous peptides. Analogous peptides with higher LPS-binding capacity show inhibition curves of lower O.D. compared to the inhibition curve of the LALF32-51 peptide.
# Analogous peptides with lower LPS-binding capacity present inhibition curves with […], compared to the inhibition curve of the LALF32-51 peptide.
# FIG. 1B represents the inhibition percentages of analogous peptides, at a fixed […] concentration, according to their capacity to displace the binding of the biotinylated LALF32-51 (0.2 μM) to LPS adsorbed to the solid surface. % de inhibición={1−(([O.D.]sample−[O.D.]min)/([O.D.]max−[O.D.]min))}×100 [O.D.] sample: Optical density value in the presence of a fixed concentration of analogous peptides; [O.D.] min: ELISA background; [O.D.] max: Optical density value without analogous peptides.
# TC-1 tumor cells = assay: prophylactic schedule of treatment in the TC-1 tumor model; assay type: in vivo; settings: 4 mg/kg, two injections before inoculation of TC-1 cells
# Method: Eight-to-ten weeks-old C57BI/6 female mice were used for this assay (n=10 animals per experimental group). For tumor graft, TC-1 tumor cells, being resuspended in phosphate-buffered saline (PBS). Mice were first injected with the L-2 peptide (4 mg of peptide/kg of body weight). After 7 days, they received a second injection of the same dose; after 14 days of the first peptide injection, animals were inoculated with 50,000 cells in a 200 μl volume by subcutaneous route in the right hind limb. Parameters evaluated for measuring the anti-tumoral effect of the peptide included the time for tumor grafting (FIG. 6A) and the survival of animals (FIG. 6B).
# TC-1 cells = assay: double challenge schedule with TC-1 tumor cells; assay type: in vivo; settings: second challenge, day 49 after the first challenge
# Method: Animals without established tumors in the schedule of the previous example (n=6) were further challenged for a second time with 50,000 TC-1 cells in a 200 μl volume in PBS by subcutaneous route in the left hind limb (day 49 after the first challenge). The same amount of tumor cells were inoculated to “naïve” mice from the same litter as control group of the experiment, to guarantee the homogeneity in age, and were kept under the same conditions without receiving the peptide (n=10 animals). Parameters evaluated to measure the anti-tumoral effect of the L-2 peptide included the time of tumor grafting and animal survival.
sequence,measurement,setting,value
"HARIKPTFRRLKWKYKGKFW [Peptide L-2, alanine-substituted analogue of LALF 32-51]",LPS-binding capacity,[1],lose the capacity to bind LPS
same,time for tumor grafting,TC-1 tumor cells; FIG. 6A,effective to prevent the development of the tumor
same,survival of animals,TC-1 tumor cells; FIG. 6B,increased the survival of the animals
same,time of tumor grafting,TC-1 cells; FIG. 7A,retarding the establishment of the tumor
same,animal survival,TC-1 cells; FIG. 7B,increasing animal survival

# Reference: patent publication US8283324B2, “Immunomodulatory and anti-tumour peptides” (Centro de Ingenieria Genetica y Biotecnologia, priority 2006, dated 2012)
